Assay results: the supplement of paper PMC11061612

Tests used:
Assay in all cases: combination Emax (second highest fraction inhibited in the dose matrix, 72 h); higher = more inhibition; extreme values may be limits of the assay
[1] = tested on: SNU-61 (Colorectal Carcinoma)
Method in brief: (§1)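 Bliss excess equals the observed combination effect minus the expected value EA + EB − EA·EB, where EA and EB are the effects of each agent alone. Combination Emax is the second-highest inhibition within the matrix. Inhibition was scaled from CellTiter-Glo 2.0 luminescence, with 0 set by vehicle wells and 1 by blank wells, after 72 hours of two-drug dosing of cells plated in 1536-well plates.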

[2] = tested on: ETK-1 (Biliary Tract Carcinoma)
Method in brief: as §1

[3] = tested on: EKVX (Non-Small Cell Lung Carcinoma)
Method in brief: as §1

[4] = tested on: BICR78 (Oral Cavity Carcinoma)
Method in brief: as §1

[5] = tested on: TYK-nu (Ovarian Carcinoma)
Method in brief: as §1

[6] = tested on: MCF7 (Breast Carcinoma)
Method in brief: as §1

[7] = tested on: KG-1 (Acute Myeloid Leukemia)
Method in brief: as §1

[8] = tested on: H4 (Low Grade Glioma)
Method in brief: as §1

[9] = tested on: SLVL (B-Cell Non-Hodgkin's Lymphoma)
Method in brief: as §1

[10] = tested on: SK-MEL-1 (Melanoma)
Method in brief: as §1

[11] = tested on: HuO9 (Osteosarcoma)
Method in brief: as §1

[12] = tested on: A172 (Glioblastoma)
Method in brief: as §1

[13] = tested on: MSTO-211H (Mesothelioma)
Method in brief: as §1

[14] = tested on: NCI-H1688 (Small Cell Lung Carcinoma)
Method in brief: as §1

[15] = tested on: CAL-39 (Other Solid Carcinomas)
Method in brief: as §1

[16] = tested on: HLE (Hepatocellular Carcinoma)
Method in brief: as §1

[17] = tested on: YT (Other Blood Carcinomas)
Method in brief: as §1

[18] = tested on: U-118-MG (Low Grade Glioma)
Method in brief: as §1

[19] = tested on: D-283MED (Other Solid Carcinomas)
Method in brief: as §1

[20] = tested on: GDM-1 (Acute Myeloid Leukemia)
Method in brief: as §1

Row | Structure (SMILES) | combination Emax [1] | combination Emax [2] | combination Emax [3] | combination Emax [4] | combination Emax [5] | combination Emax [6] | combination Emax [7] | combination Emax [8] | combination Emax [9] | combination Emax [10] | combination Emax [11] | combination Emax [12] | combination Emax [13] | combination Emax [14] | combination Emax [15] | combination Emax [16] | combination Emax [17] | combination Emax [18] | combination Emax [19] | combination Emax [20]
1 | Cc1cc2ncnn2cc1Nc1ncc2c(n1)n(C1CCOCC1)c(=O)n2C [AZD7648] + CCN(CCO)CCCOc1ccc2c(Nc3cc(CC(=O)Nc4cccc(F)c4)[nH]n3)ncnc2c1 [AZD2811] (first compound max 10 µM, 7x7, partner max 1 µM) | 0.254 | 0.25 | 0.309 | 0.354 | 0.422 | 0.55 | 0.386 | 0.711 | 0.687 | 0.3 | 0.369 | 0.611 | 0.469 | 0.201 | 0.433 | 0.433 | 0.624 | 0.317 | 0.74 | 0.859
2 | CN(C)CCCOc1ccc(-c2ccc3ncc4c(c3c2)n(C2CCOCC2)c(=O)n4C)cn1 [AZD0156] + CCN(CCO)CCCOc1ccc2c(Nc3cc(CC(=O)Nc4cccc(F)c4)[nH]n3)ncnc2c1 [AZD2811] (first compound max 1 µM, 7x7, partner max 1 µM) | 0.0613 | 0.21 | 0.0666 | 0.182 | 0.304 | 0.237 | 0.328 | 0.513 | 0.605 | 0.275 | 0.224 | 0.499 | 0.27 | 0.143 | 0.33 | 0.414 | 0.591 | 0.194 | 0.769 | 0.81
3 | CN(CCO)CC[C@H](CSc1ccccc1)Nc1ccc(S(=O)(=O)NC(=O)c2ccc(N3CCC([C@@H](O)c4ccccc4-c4ccc(Cl)cc4)CC3)cc2)cc1S(=O)(=O)C(F)(F)F [AZD4320] + C1CN(CCC1(C(=O)N[C@@H](CCO)C2=CC=C(C=C2)Cl)N)C3=NC=NC4=C3C=CN4 [Capivasertib] (first compound max 1 µM, 7x7, partner max 3 µM) | 0.053 | 0.175 | 0.269 | 0.244 | 0.244 | 0.279 | 0.929 | 0.404 | 0.622 | 0.419 | 0.873 | 0.158 | 0.48 | 0.575 | 0.286 | 0.274 | 0.212 | 0.497 | 0.763 | 0.991
4 | Cc1c2c(nn1C)CSCc1cc(n(C)n1)CSc1cc(c3ccccc3c1)OCCCc1c(C(=O)O)n(C)c3c-2c(Cl)ccc13 [AZD5991] + Cn1cnc2c(F)c(Nc3ccc(Br)cc3Cl)c(C(=O)NOCCO)cc21 [Selumetinib] (first compound max 1 µM, 7x7, partner max 3 µM) | 0.464 | 0.311 | 0.348 | 0.441 | 0.513 | 0.559 | 1 | 0.456 | 0.47 | 0.912 | 1 | 0.316 | 0.264 | 0.411 | 0.874 | 0.326 | 1 | 0.326 | 0.237 | 0.374
5 | COc1cccc2c1C(=O)c1c(O)c3c(c(O)c1C2=O)C[C@@](O)(C(=O)CO)C[C@@H]3O[C@H]1C[C@H](N)[C@H](O)[C@H](C)O1 [Doxorubicin] + Cc1cc2ncnn2cc1Nc1ncc2c(n1)n(C1CCOCC1)c(=O)n2C [AZD7648] (first compound max 1 µM, 7x7, partner max 10 µM) | 0.321 | 0.562 | 0.378 | 0.748 | 0.704 | 0.623 | 0.365 | 0.818 | 0.975 | 0.593 | 0.897 | 0.94 | 0.813 | 0.732 | 0.654 | 0.812 | 0.862 | 0.715 | 0.943 | 0.975
6 | CC1(C)CCC(CN2CCN(c3ccc(C(=O)NS(=O)(=O)c4ccc(NCC5CCOCC5)c([N+](=O)[O-])c4)c(Oc4cnc5[nH]ccc5c4)c3)CC2)=C(c2ccc(Cl)cc2)C1 [Venetoclax] + C[C@@H](Nc1cc(F)cc(F)c1)c1cc(C(=O)N(C)C)cc2c(=O)cc(N3CCOCC3)oc12 [AZD8186] (first compound max 1 µM, 7x7, partner max 3 µM) | 0.103 | 0.212 | 0.367 | 0.434 | 0.495 | 0.255 | 0.508 | 0.383 | 0.746 | 0.198 | 0.468 | 0.171 | 0.207 | 0.191 | 0.841 | 0.504 | 0.631 | 0.284 | 0.615 | 0.934
7 | CC1(C)CCC(CN2CCN(c3ccc(C(=O)NS(=O)(=O)c4ccc(NCC5CCOCC5)c([N+](=O)[O-])c4)c(Oc4cnc5[nH]ccc5c4)c3)CC2)=C(c2ccc(Cl)cc2)C1 [Venetoclax] + C=CCn1c(=O)c2cnc(Nc3ccc(N4CCN(C)CC4)cc3)nc2n1-c1cccc(C(C)(C)O)n1 [AZD1775] (first compound max 1 µM, partner max 1 µM) | 0.373 | 0.497 | 0.172 | 0.553 | 0.681 | 0.452 | 0.913 | 0.85 | 0.978 | 0.411 | 0.759 | 0.315 | 0.592 | 0.666 | 0.36 | 0.749 | 0.928 | 0.357 | 0.979 | 1
8 | Cc1c2c(nn1C)CSCc1cc(n(C)n1)CSc1cc(c3ccccc3c1)OCCCc1c(C(=O)O)n(C)c3c-2c(Cl)ccc13 [AZD5991] + CN(C)CCCOc1ccc(-c2ccc3ncc4c(c3c2)n(C2CCOCC2)c(=O)n4C)cn1 [AZD0156] (first compound max 1 µM, 7x7, partner max 1 µM) | 0.196 | 0.26 | 0.239 | 0.219 | 0.397 | 0.612 | 1 | 0.448 | 0.425 | 0.261 | 1 | 0.228 | 0.188 | 0.276 | 0.515 | 0.39 | 1 | 0.27 | 0.36 | 0.549
9 | CC(=O)Nc1cccc(-n2c(=O)n(C3CC3)c(=O)c3c(Nc4ccc(I)cc4F)n(C)c(=O)c(C)c32)c1 [Trametinib] + Cc1nc(-c2cn3c(n2)-c2ccc(-c4cnn(C(C)(C)C(N)=O)c4)cc2OCC3)n(C(C)C)n1 [Taselisib] (first compound max 1 µM, 7x7, partner max 10 µM) | 0.672 | 0.86 | 0.82 | 0.726 | 0.737 | 0.732 | 0.412 | 0.795 | 0.478 | 0.942 | 0.8 | 0.761 | 0.854 | 0.628 | 1 | 0.401 | 0.711 | 0.757 | 0.576 | 0.88
